Test results reported in the NIST ThermoML archive (doi:10.1021/je0503296).
± gives the expanded uncertainty stated by the source.

Settings: Liquid, Vibrating object- edge clamped plate

CCCCCCCC [octane]
mass density (323.15 K, 100 kPa): 676 ± 1.4 kg/m3 | viscosity (323.15 K, 100 kPa): 0.3892 ± 0.0095 mPa·s | mass density (323.15 K, 10096 kPa): 687.7 ± 1.4 kg/m3 | viscosity (323.15 K, 10096 kPa): 0.44 ± 0.011 mPa·s | mass density (323.15 K, 20701 kPa): 698.1 ± 1.4 kg/m3 | viscosity (323.15 K, 20701 kPa): 0.495 ± 0.012 mPa·s | mass density (323.15 K, 30654 kPa): 706.7 ± 1.4 kg/m3 | viscosity (323.15 K, 30654 kPa): 0.53 ± 0.013 mPa·s | mass density (323.15 K, 41050 kPa): 714.6 ± 1.4 kg/m3 | viscosity (323.15 K, 41050 kPa): 0.576 ± 0.014 mPa·s | mass density (323.15 K, 54543 kPa): 723.9 ± 1.4 kg/m3 | viscosity (323.15 K, 54543 kPa): 0.633 ± 0.016 mPa·s | mass density (323.15 K, 68036 kPa): 732.2 ± 1.5 kg/m3 | viscosity (323.15 K, 68036 kPa): 0.693 ± 0.017 mPa·s | mass density (348.14 K, 100 kPa): 654.3 ± 1.3 kg/m3 | viscosity (348.14 K, 100 kPa): 0.3011 ± 0.0081 mPa·s | mass density (348.14 K, 7551 kPa): 664.7 ± 1.3 kg/m3 | viscosity (348.14 K, 7551 kPa): 0.3338 ± 0.0087 mPa·s | mass density (348.14 K, 13680 kPa): 672.2 ± 1.3 kg/m3 | viscosity (348.14 K, 13680 kPa): 0.3513 ± 0.0088 mPa·s | mass density (348.14 K, 20500 kPa): 679.4 ± 1.4 kg/m3 | viscosity (348.14 K, 20500 kPa): 0.378 ± 0.01 mPa·s | mass density (348.14 K, 27466 kPa): 686.1 ± 1.4 kg/m3 | viscosity (348.14 K, 27466 kPa): 0.4008 ± 0.0099 mPa·s | mass density (348.14 K, 27469 kPa): 686.1 ± 1.4 kg/m3 | viscosity (348.14 K, 27469 kPa): 0.4 ± 0.01 mPa·s | mass density (348.14 K, 34305 kPa): 692.1 ± 1.4 kg/m3 | viscosity (348.14 K, 34305 kPa): 0.424 ± 0.01 mPa·s | mass density (348.14 K, 34314 kPa): 690.8 ± 1.4 kg/m3 | viscosity (348.14 K, 34314 kPa): 0.424 ± 0.01 mPa·s | mass density (348.14 K, 41226 kPa): 697.9 ± 1.4 kg/m3 | viscosity (348.14 K, 41226 kPa): 0.449 ± 0.011 mPa·s | mass density (348.14 K, 41227 kPa): 697.8 ± 1.4 kg/m3 | viscosity (348.14 K, 41227 kPa): 0.449 ± 0.011 mPa·s | mass density (348.14 K, 48070 kPa): 703.1 ± 1.4 kg/m3 | viscosity (348.14 K, 48070 kPa): 0.471 ± 0.012 mPa·s | mass density (348.14 K, 55000 kPa): 708.2 ± 1.4 kg/m3 | viscosity (348.14 K, 55000 kPa): 0.498 ± 0.012 mPa·s | mass density (348.14 K, 55004 kPa): 708.1 ± 1.4 kg/m3 | viscosity (348.14 K, 55004 kPa): 0.499 ± 0.012 mPa·s | mass density (348.14 K, 61992 kPa): 714.2 ± 1.4 kg/m3 | viscosity (348.14 K, 61992 kPa): 0.522 ± 0.015 mPa·s | mass density (348.14 K, 61994 kPa): 712.8 ± 1.4 kg/m3 | viscosity (348.14 K, 61994 kPa): 0.533 ± 0.015 mPa·s | mass density (373.12 K, 6723 kPa): 644.7 ± 1.3 kg/m3 | viscosity (373.12 K, 6723 kPa): 0.2757 ± 0.0067 mPa·s | mass density (373.12 K, 6724 kPa): 644.6 ± 1.3 kg/m3 | viscosity (373.12 K, 6724 kPa): 0.2758 ± 0.0067 mPa·s | mass density (373.12 K, 20592 kPa): 662.9 ± 1.3 kg/m3 | viscosity (373.12 K, 20592 kPa): 0.3205 ± 0.008 mPa·s | mass density (373.12 K, 20599 kPa): 662.9 ± 1.3 kg/m3 | viscosity (373.12 K, 20599 kPa): 0.3217 ± 0.0079 mPa·s | mass density (373.12 K, 27397 kPa): 670.3 ± 1.3 kg/m3 | viscosity (373.12 K, 27397 kPa): 0.3429 ± 0.009 mPa·s | mass density (373.12 K, 27402 kPa): 670.4 ± 1.3 kg/m3 | viscosity (373.12 K, 27402 kPa): 0.3429 ± 0.0089 mPa·s | mass density (373.12 K, 34317 kPa): 677.1 ± 1.4 kg/m3 | viscosity (373.12 K, 34317 kPa): 0.3646 ± 0.0089 mPa·s | mass density (373.12 K, 34324 kPa): 677.2 ± 1.4 kg/m3 | viscosity (373.12 K, 34324 kPa): 0.3649 ± 0.0089 mPa·s | mass density (373.12 K, 41184 kPa): 683.5 ± 1.4 kg/m3 | viscosity (373.12 K, 41184 kPa): 0.381 ± 0.01 mPa·s | mass density (373.12 K, 41207 kPa): 683.6 ± 1.4 kg/m3 | viscosity (373.12 K, 41207 kPa): 0.38 ± 0.01 mPa·s | mass density (373.12 K, 41221 kPa): 683.6 ± 1.4 kg/m3 | viscosity (373.12 K, 41221 kPa): 0.384 ± 0.01 mPa·s | mass density (373.12 K, 48024 kPa): 689.2 ± 1.4 kg/m3 | viscosity (373.12 K, 48024 kPa): 0.409 ± 0.01 mPa·s | mass density (373.12 K, 48032 kPa): 689.1 ± 1.4 kg/m3 | viscosity (373.12 K, 48032 kPa): 0.409 ± 0.01 mPa·s | mass density (373.12 K, 54853 kPa): 694.6 ± 1.4 kg/m3 | viscosity (373.12 K, 54853 kPa): 0.433 ± 0.011 mPa·s | mass density (373.12 K, 54866 kPa): 694.6 ± 1.4 kg/m3 | viscosity (373.12 K, 54866 kPa): 0.432 ± 0.011 mPa·s | mass density (373.12 K, 61686 kPa): 699.8 ± 1.4 kg/m3 | viscosity (373.12 K, 61686 kPa): 0.447 ± 0.011 mPa·s | mass density (373.12 K, 61704 kPa): 699.8 ± 1.4 kg/m3 | viscosity (373.12 K, 61704 kPa): 0.449 ± 0.011 mPa·s | mass density (423.09 K, 14725 kPa): 620.5 ± 1.3 kg/m3 | viscosity (423.09 K, 14725 kPa): 0.229 ± 0.013 mPa·s | mass density (423.09 K, 27159 kPa): 638.8 ± 1.3 kg/m3 | viscosity (423.09 K, 27159 kPa): 0.252 ± 0.016 mPa·s | mass density (423.09 K, 40831 kPa): 655.5 ± 1.4 kg/m3 | viscosity (423.09 K, 40831 kPa): 0.287 ± 0.019 mPa·s | mass density (423.09 K, 54591 kPa): 668.8 ± 1.4 kg/m3 | viscosity (423.09 K, 54591 kPa): 0.344 ± 0.021 mPa·s | mass density (423.09 K, 68420 kPa): 676.4 ± 1.5 kg/m3 | viscosity (423.09 K, 68420 kPa): 0.352 ± 0.029 mPa·s

Cc1ccccc1 [toluene]
mass density (323.15 K, 100 kPa): 837 ± 1.7 kg/m3 | viscosity (323.15 K, 100 kPa): 0.421 ± 0.01 mPa·s | mass density (323.15 K, 13940 kPa): 850.7 ± 1.7 kg/m3 | viscosity (323.15 K, 13940 kPa): 0.482 ± 0.012 mPa·s | mass density (323.15 K, 27338 kPa): 861.7 ± 1.7 kg/m3 | viscosity (323.15 K, 27338 kPa): 0.524 ± 0.013 mPa·s | mass density (323.15 K, 41055 kPa): 871.5 ± 1.7 kg/m3 | viscosity (323.15 K, 41055 kPa): 0.571 ± 0.014 mPa·s | mass density (323.15 K, 54593 kPa): 880.1 ± 1.8 kg/m3 | viscosity (323.15 K, 54593 kPa): 0.615 ± 0.015 mPa·s | mass density (323.15 K, 68135 kPa): 888.1 ± 1.8 kg/m3 | viscosity (323.15 K, 68135 kPa): 0.66 ± 0.016 mPa·s | mass density (373.11 K, 13270 kPa): 807.3 ± 1.6 kg/m3 | viscosity (373.11 K, 13270 kPa): 0.2924 ± 0.0071 mPa·s | mass density (373.11 K, 26975 kPa): 822.5 ± 1.6 kg/m3 | viscosity (373.11 K, 26975 kPa): 0.3398 ± 0.0088 mPa·s | mass density (373.11 K, 40789 kPa): 834.2 ± 1.7 kg/m3 | viscosity (373.11 K, 40789 kPa): 0.3691 ± 0.0092 mPa·s | mass density (373.11 K, 54631 kPa): 845 ± 1.7 kg/m3 | viscosity (373.11 K, 54631 kPa): 0.419 ± 0.011 mPa·s | mass density (373.11 K, 68196 kPa): 853.4 ± 1.7 kg/m3 | viscosity (373.11 K, 68196 kPa): 0.436 ± 0.011 mPa·s
